{"source": "patent US20100227921A1", "about": "“AMINO ACID AND PEPTIDE CARBAMATE PRODRUGS OF […] USES THEREOF” (SHIRE LLC, priority 2009, published 2010)", "experiment": "Comparative bioavailability after oral administration to rats (plasma LC-MS-MS)", "type": "in vivo", "method": "Test substances, i.e., tapentadol or tapentadol valine carbamate were administered by oral gavage to groups of male Sprague Dawley rats.\nBlood samples were taken at various times after administration and submitted to analysis for the parent drug and pro-drug using a validated LC-MS-MS assay. Pharmacokinetic parameters derived from the plasma analytical data were determined using Win Nonlin.", "key": {"[1]": {"conditions": "male rat, oral tapentadol 10 mg free base equiv/kg, individual animals 1-5 (5 outlier)"}}, "note": "Where “and” joins values, the source holds several entries; their conditions need not be identical. Identical values can stand only once. Marks after values point to notes of the source that are not given here."}
{"smiles": "CC[C@@H](c1cccc(O)c1)[C@@H](C)CN(C)C", "note": "(racemic) [Tapentadol, (−)-(1R,2R)-3-(3-dimethyl-amino-1-ethyl-2-methyl-propyl)-phenol]", "values": [{"measurement": "Plasma concentration of tapentadol", "setting": "male rat, oral tapentadol 10 mg free base equiv/kg, 0.5 h, individual animals 1-5 (5 outlier)", "result": "003.53 ng/mL and 001.60 ng/mL and 2.33 ng/mL and 003.48 ng/mL and 70.5 ng/mL"}, {"measurement": "Plasma concentration of tapentadol", "setting": "male rat, oral tapentadol 10 mg free base equiv/kg, 1 h, individual animals 1-5 (5 outlier)", "result": "3.98 ng/mL and 2.32 ng/mL and 5.21 ng/mL and 5.87 ng/mL and 52.6 ng/mL"}, {"measurement": "Plasma concentration of tapentadol", "setting": "male rat, oral tapentadol 10 mg free base equiv/kg, 2 h, individual animals 1-5 (5 outlier)", "result": "2.70 ng/mL and 2.28 ng/mL and 1.72 ng/mL and 3.06 ng/mL and 22.7 ng/mL"}, {"measurement": "Plasma concentration of tapentadol", "setting": "male rat, oral tapentadol 10 mg free base equiv/kg, 3 h, individual animals 1-5 (5 outlier)", "result": "1.75 ng/mL and 1.65 ng/mL and 1.68 ng/mL and 2.20 ng/mL and 10.9 ng/mL"}, {"measurement": "Plasma concentration of tapentadol", "setting": "male rat, oral tapentadol 10 mg free base equiv/kg, 4 h, individual animals 1-5 (5 outlier)", "result": "1.65 ng/mL and 3.61 ng/mL and 1.67 ng/mL and 2.62 ng/mL and 9.10 ng/mL"}, {"measurement": "Plasma concentration of tapentadol", "setting": "male rat, oral tapentadol 10 mg free base equiv/kg, 6 h, individual animals 1-5 (5 outlier)", "result": "1.38 ng/mL and 1.19 ng/mL and 1.25 ng/mL and 2.00 ng/mL and 5.77 ng/mL"}, {"measurement": "Plasma concentration of tapentadol", "setting": "male rat, oral tapentadol 10 mg free base equiv/kg, 8 h, individual animals 1-5 (5 outlier)", "result": "0.991 ng/mL and 1.08 ng/mL and 0.684 ng/mL and 1.27 ng/mL and 5.15 ng/mL"}, {"measurement": "Plasma concentration of tapentadol", "setting": "male rat, oral tapentadol 10 mg free base equiv/kg, 12 h, individual animals 1-5 (5 outlier)", "result": "BLQ (BLQ Values less than level of quantification (LOQ, <0.5 ng/mL))"}, {"measurement": "Plasma concentration of tapentadol", "setting": "male rat, oral tapentadol 10 mg free base equiv/kg, 24 h, individual animals 1-5", "result": "BLQ (BLQ Values less than level of quantification (LOQ, <0.5 ng/mL))"}, {"measurement": "AUCt of tapentadol", "setting": "[1]", "result": "15.4 ng·h/mL and 15.3 ng·h/mL and 14.2 ng·h/mL and 20.6 ng·h/mL and 151 ng·h/mL"}, {"measurement": "Cmax of tapentadol", "setting": "[1]", "result": "3.98 ng/mL and 3.61 ng/mL and 5.21 ng/mL and 5.87 ng/mL and 70.5 ng/mL"}, {"measurement": "T>50%Cmax of tapentadol", "setting": "[1]", "result": "1.5 h (2×) and 1.0 h and 0.5 h"}, {"measurement": "Tmax of tapentadol", "setting": "[1]", "result": 4, "unit": "h"}, {"measurement": "t½ of tapentadol", "setting": "male rat, oral tapentadol 10 mg free base equiv/kg, individual animals 1-5 (5 outlier; animals 1 and 4 estimates)", "result": "6.13^c h and 2.30 h and 3.11 h and 3.83^c h and 2.59 h"}, {"measurement": "AUC of tapentadol", "setting": "male rat, oral tapentadol 10 mg free base equiv/kg, individual animals 1-5 (5 outlier; animals 1 and 4 estimates, extrapolated portion >25%)", "result": "24.6^c ng · h/mL and 18.4 ng · h/mL and 17.4 ng · h/mL and 27.8^c ng · h/mL and 156 ng · h/mL"}, {"measurement": "T>50%Cmax of tapentadol", "setting": "male rat, oral tapentadol 10 mg free base equiv/kg, median, animal 5 excluded", "result": "1.5^a h"}, {"measurement": "Plasma concentration of tapentadol", "setting": "male rat, oral tapentadol valine carbamate 10 mg tapentadol free base equiv/kg, 0.5 h, individual animals 6-10", "result": "BLQ (BLQ Values less than LOQ (<0.5 ng/mL))"}, {"measurement": "Plasma concentration of tapentadol", "setting": "male rat, oral tapentadol valine carbamate 10 mg tapentadol free base equiv/kg, 1 h, individual animals 6-10", "result": "BLQ (BLQ Values less than LOQ (<0.5 ng/mL))"}, {"measurement": "Plasma concentration of tapentadol", "setting": "male rat, oral tapentadol valine carbamate 10 mg tapentadol free base equiv/kg, 2 h, individual animals 6-10", "result": "BLQ (BLQ Values less than LOQ (<0.5 ng/mL))"}, {"measurement": "Plasma concentration of tapentadol", "setting": "male rat, oral tapentadol valine carbamate 10 mg tapentadol free base equiv/kg, 3 h, individual animals 6-10", "result": "BLQ (BLQ Values less than LOQ (<0.5 ng/mL))"}, {"measurement": "Plasma concentration of tapentadol", "setting": "male rat, oral tapentadol valine carbamate 10 mg tapentadol free base equiv/kg, 4 h, individual animals 6-10", "result": "BLQ (BLQ Values less than LOQ (<0.5 ng/mL))"}, {"measurement": "Plasma concentration of tapentadol", "setting": "male rat, oral tapentadol valine carbamate 10 mg tapentadol free base equiv/kg, 12 h, individual animals 6-10", "result": "BLQ (BLQ Values less than LOQ (<0.5 ng/mL))"}, {"measurement": "Plasma concentration of tapentadol", "setting": "male rat, oral tapentadol valine carbamate 10 mg tapentadol free base equiv/kg, 24 h, individual animals 6-10", "result": "BLQ (BLQ Values less than LOQ (<0.5 ng/mL))"}, {"measurement": "T>50%Cmax of tapentadol", "setting": "male rat, oral tapentadol valine carbamate 10 mg tapentadol free base equiv/kg, individual animals 6-10", "result": 2, "unit": "h"}, {"measurement": "T>50%Cmax of tapentadol", "setting": "male rat, oral tapentadol valine carbamate 10 mg tapentadol free base equiv/kg, median", "result": "2^a h"}, {"measurement": "concentration at 0.5 h", "setting": "male, Sprague Dawley, rat, plasma, po, 10 mg free base equiv/kg, oral tapentadol 10 mg free base equiv/kg, 0.5 h, mean, animal 5 excluded, read-out: Plasma concentration of tapentadol", "result": 2.73, "unit": "ng/mL"}, {"measurement": "concentration at 1 h", "setting": "male, Sprague Dawley, rat, plasma, po, 10 mg free base equiv/kg, oral tapentadol 10 mg free base equiv/kg, 1 h, mean, animal 5 excluded, read-out: Plasma concentration of tapentadol", "result": 4.34, "unit": "ng/mL"}, {"measurement": "concentration at 2 h", "setting": "male, Sprague Dawley, rat, plasma, po, 10 mg free base equiv/kg, oral tapentadol 10 mg free base equiv/kg, 2 h, mean, animal 5 excluded, read-out: Plasma concentration of tapentadol", "result": 2.44, "unit": "ng/mL"}, {"measurement": "concentration at 3 h", "setting": "male, Sprague Dawley, rat, plasma, po, 10 mg free base equiv/kg, oral tapentadol 10 mg free base equiv/kg, 3 h, mean, animal 5 excluded, read-out: Plasma concentration of tapentadol", "result": 1.82, "unit": "ng/mL"}, {"measurement": "concentration at 4 h", "setting": "male, Sprague Dawley, rat, plasma, po, 10 mg free base equiv/kg, oral tapentadol 10 mg free base equiv/kg, 4 h, mean, animal 5 excluded, read-out: Plasma concentration of tapentadol", "result": 2.39, "unit": "ng/mL"}, {"measurement": "concentration at 6 h", "setting": "male, Sprague Dawley, rat, plasma, po, 10 mg free base equiv/kg, oral tapentadol 10 mg free base equiv/kg, 6 h, mean, animal 5 excluded, read-out: Plasma concentration of tapentadol", "result": 1.45, "unit": "ng/mL"}, {"measurement": "concentration at 8 h", "setting": "male, Sprague Dawley, rat, plasma, po, 10 mg free base equiv/kg, oral tapentadol 10 mg free base equiv/kg, 8 h, mean, animal 5 excluded, read-out: Plasma concentration of tapentadol", "result": 1.01, "unit": "ng/mL"}, {"measurement": "concentration at 12 h", "setting": "male, Sprague Dawley, rat, plasma, po, 10 mg free base equiv/kg, oral tapentadol 10 mg free base equiv/kg, 12 h, individual animals 1-5 (5 outlier), read-out: Plasma concentration of tapentadol", "result": 1.09, "unit": "ng/mL"}, {"measurement": "AUC", "setting": "male, Sprague Dawley, rat, plasma, po, 10 mg free base equiv/kg, oral tapentadol 10 mg free base equiv/kg, mean, animal 5 and estimates excluded", "result": 17.9, "unit": "ng·h/mL"}, {"measurement": "half-life", "setting": "male, Sprague Dawley, rat, plasma, po, 10 mg free base equiv/kg, oral tapentadol 10 mg free base equiv/kg, mean, animal 5 and estimates excluded, read-out: t½ of tapentadol (converted)", "result": 2.64, "unit": "h"}]}
